Laboratory results from patent EP1285920A1, “C10 Ester sustituted taxanes as antitumor agents” (Florida State University Research Foundation, Inc., priority 2001, dated 2003).
Like-named read-outs stand apart in the source and are kept apart here.

How the values were obtained:
VM46 colon carcinoma = conditions: for response rate: VM46, i.v. qd x 1 at estimated MTD; for Toxic Deaths / Complete Response / Partial Response / Stable Disease / Survivors: number of mice; for Complete Response / Partial Response / Stable Disease / Survivors: Day 64
Description: Dosing was initiated on Day 1. […] Taxotere was given i.v. at a dose of 70 mg/kg on a qd x 1 schedule.

A375 melanoma = conditions: for Toxic Deaths / Survivors: number of mice, i.v. qd x 1 at estimated MTD (Taxol 24 mg/kg, Taxotere 70 mg/kg), 6 mice/group (Taxotere 7); for Survivors: Day 60
Description: Dosing was initiated on Day 1. […] Taxotere was given i.v. on a qd x 1 schedule at a dose of 70 mg/kg. […] The study was terminated on Day 60. Treatment groups are detailed in Table 9.

DU145 prostate carcinoma = conditions: for total response rate: iv; for Toxic Deaths / Survivors: number of 5 mice, Day 91; for Toxic Deaths: i.v. qd x 1 at estimated MTD (Taxol 24 mg/kg as two split doses); for Survivors: i.v. qd x 1 at estimated MTD (Taxol 24 mg/kg split)
From the text: Dosing was initiated on Day 1. […] Treatment groups are detailed in Table 5.

MX-1 carcinoma = conditions: for Survivors / Toxic Deaths: number of 6 mice, i.v. qd x 1 at MTD, Day 60; for Survivors: doses as in E17; for Toxic Deaths: mg/kg: Taxol 36 (split dose), 0503 72.6, 0536 49, 0663 159, 0670 123, 0687 159, 0706 108, 0908 159, 0947 76.9, 0951 72.6, 0983 67.4, 0999 49, 1003 49, 1011 108
How it was run: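 Mice dosed with a single i.v. bolus (qd x 1) at each compound's MTD, formulated in 5% ethanol, 5% Cremophor, 90% isotonic saline. Study ended Day 60; complete response = tumor not palpable at study end.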

[1] = system: Panc-1 pancreatic carcinoma; assay: In vivo evaluation against Panc-1 human pancreatic carcinoma (Example 17); conditions: for MDS: i.v. qd x 1 (compounds estimated MTD; Taxol 36 mg/kg split), days until tumor 1.5 g, ended Day 60; for Complete Response / Partial Response / Stable Disease: Day 60; for Mean Score: tumor scoring system
HCT116 carcinoma = conditions: for Survivors / Toxic Deaths: number of 5 mice, i.v. qd x 1 at MTD, Day 60; for Survivors: doses as in E3; for Toxic Deaths: mg/kg: Taxol 36 (split doses), 0503 72.6, 0536 49, 0663 159, 0670 123, 0687 159, 0706 108, 0908 159, 0947 76.9, 0951 72.6, 0983 72.6, 0999 49, 1003 49, 1011 108
How it was run: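 Mice bearing HCT116 tumours received a single i.v. maximum tolerated dose per compound, formulated in 5% ethanol, 5% Cremophor, 90% isotonic saline. Study ended on Day 60; complete response meant no palpable tumour at study end.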

HCT116 = assay: In Vitro cytotoxicity measured by the cell colony formation assay; format: cell-based, human; conditions: Homo sapiens, HCT-116; read-out: IN VITRO ID 50 HCT116
How it was run: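 Four hundred cells per dish in McCoy's 5a medium with 10% FBS were allowed to attach for 5 h at 37 °C. They were then exposed to compound for 72 h at 37 °C, added as a 10× stock made fresh in medium. After HBSS rinsing and refeeding, colonies were counted after 7 days.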

A2780 ovarian carcinoma = system: A2780 ovarian carcinoma
Description: Dosing was initiated on Day 1. […] Taxotere was given i.v. on a qd x 1 schedule at a dose of 70 mg/kg. […] The study was terminated on Day 60. Treatment groups are detailed in Table 7.

[2] = system: Panc-1 pancreatic carcinoma
Description: The dosing volume was 0.3 ml per 20 g mouse.
Female NCr-nude mice were implanted subcutaneously with 1 mm^3 Panc-1 pancreatic carcinoma fragments in the flank and sorted into treatment groups of six mice each. […] Dosing was initiated on Day 1. The antitumor compounds were given i.v. at an estimated maximum tolerated dose (MTD) appropriate for each agent on a qd x 1 schedule (single administration of compound). […] The vehicle was administered i.v. to control mice in Group 1 on the qd x 1 schedule.
The mean days of survival is the number of days after which a neoplasm reached a size of 1.5 g and the animal was euthanized. A complete response is obtained if the tumor shrinks to a size smaller than its size on Day 1 of the study.

[3] = i.v. qd x 1, mg/kg: Taxol 24, 0499 77, 0503 72.6, 0670 123.1, 0706 107.6, 0838 72.6, 0854 46.6, 0983 67.4, Taxotere 70, 6 mice/group
[4] = number of mice, i.v. qd x 1, mg/kg: Taxol 36, 0499 77, 0503 72.6, 0670 123.1, 0706 107.6, 0838 72.6, 0854 76.9, 6 mice/group
[5] = i.v. qd x 1, mg/kg: Taxol 36, 0499 77, 0503 72.6, 0670 123.1, 0706 107.6, 0838 72.6, 0854 76.9, 6 mice/group
[6] = Panc-1 (Example 18), i.v. qd x 1, six mice per group
[7] = number of mice, i.v. qd x 1, mg/kg: Taxol 24, 0854 46.6, 1011 107.6, 6 mice/group, Day 63
[8] = A2780, i.v. qd x 1, five mice per group

| SMILES | response rate (VM46 colon carcinoma) | Toxic Deaths (VM46 colon carcinoma; [3]) | Complete Response (VM46 colon carcinoma; [3]) | Toxic Deaths (A375 melanoma) | Survivors (A375 melanoma) | Toxic Deaths (DU145 prostate carcinoma) | Survivors (DU145 prostate carcinoma) | Partial Response (MX-1 carcinoma; iv) | Complete Response (MX-1 carcinoma; iv, 1440 h) | Mean Score (MX-1 carcinoma; iv, 1440 h) | Stable Disease (MX-1 carcinoma; iv, 1440 h) | Survivors (MX-1 carcinoma) | Toxic Deaths (MX-1 carcinoma) | Partial Response (HCT116 carcinoma; iv) | Complete Response (HCT116 carcinoma; iv, 1440 h) | Mean Score (HCT116 carcinoma; iv, 1440 h) | Stable Disease (HCT116 carcinoma; iv, 1440 h) | Survivors (HCT116 carcinoma) | Toxic Deaths (HCT116 carcinoma) | IC50 (HCT116) [nM] | other results |
| --- | --- | --- | --- | --- | --- | --- | --- | --- | --- | --- | --- | --- | --- | --- | --- | --- | --- | --- | --- | --- | --- |
| CCC(=O)O[C@H]1C(=O)[C@@]2(C)[C@H]([C@H](OC(=O)c3ccccc3)[C@]3(O)C[C@H](OC(=O)[C@H](O)[C@@H](NC(=O)c4ccccc4)C4CC4)C(C)=C1C3(C)C)[C@]1(OC(C)=O)CO[C@@H]1C[C@@H]2O [Compound 0706] | 56% | 0 | 1 | 1 | 0 | 0 | 3 | 0 | 5 | 8.3 ± 1.7 | 0 | 5 | 1 | 4 | 1 | 9.2 ± 0.2 | 0 | 5 | 0 | < 1 | MDS (n) (VM46 colon carcinoma; mean days of survival until neoplasm reached 1.5 g, i.v. qd x 1, mg/kg: Taxol 24, 0499 77, 0503 72.6, 0670 123.1, 0706 107.6, 0838 72.6, 0854 46.6, 0983 67.4, Taxotere 70, 6 mice/group, terminated Day 64): 48.6 ± 0.9 (3) days; Partial Response (VM46 colon carcinoma; [3]): 2; Stable Disease (VM46 colon carcinoma; [3]): 0; Survivors (VM46 colon carcinoma; [3]): 3; Mean Score (VM46 colon carcinoma; tumor scoring system, i.v. qd x 1, mg/kg: Taxol 24, 0499 77, 0503 72.6, 0670 123.1, 0706 107.6, 0838 72.6, 0854 46.6, 0983 67.4, Taxotere 70, 6 mice/group): 6.2 ± 1.4; complete responses (DU145 prostate carcinoma; DU145, i.v. qd x 1, five mice per group): 2; total response rate (DU145 prostate carcinoma): 20-50%; MDS ([1]; Panc-1 (Example 17)): 47 to 56 days; Toxic Deaths [1, 4]: 0; Complete Response [1, 4]: 0; Partial Response [1, 4]: 3; Stable Disease [1, 4]: 2; Mean Score [1, 5]: 6.6 ± 1; Mean Score (A2780 ovarian carcinoma; iv, 72.6 mg/kg): 3 ± 0; Complete Response (A2780 ovarian carcinoma; iv, 72.6 mg/kg, 1440 h): 0; MDS (n) (A2780 ovarian carcinoma; iv, 72.6 mg/kg, 1440 h): 37.0 ± 4.1 (5) days; Partial Respons (A2780 ovarian carcinoma; iv, 72.6 mg/kg, 1440 h): 0; Stable Disease (A2780 ovarian carcinoma; iv, 72.6 mg/kg, 1440 h): 0; Toxic Deaths (A2780 ovarian carcinoma; number of mice, i.v. qd x 1 at estimated MTD (Taxol 24 mg/kg, Taxotere 70 mg/kg, 0983 72.6 mg/kg), 5 mice/group (Taxotere 6)): 0; Survivors (A2780 ovarian carcinoma; number of mice, i.v. qd x 1 at estimated MTD (Taxol 24 mg/kg, Taxotere 70 mg/kg, 0983 72.6 mg/kg), 5 mice/group (Taxotere 6), Day 60): 0 |
| CCCC(=O)O[C@H]1C(=O)[C@@]2(C)[C@H]([C@H](OC(=O)c3ccccc3)[C@]3(O)C[C@H](OC(=O)[C@H](O)[C@@H](NC(=O)OC(C)(C)C)c4ccsc4)C(C)=C1C3(C)C)[C@]1(OC(C)=O)CO[C@@H]1C[C@@H]2O [Compound 1011] |  |  |  | 3 | 0 | 3 | 0 | 0 | 6 | 10 ± 0 | 0 | 6 | 0 | 2 | 3 | 9.6 ± 0.2 | 0 | 5 | 0 | < 1 | mean group weight losses (A375 melanoma; A375, i.v. qd x 1): 20 - 30%; mortality rate (DU145 prostate carcinoma; DU145, i.v. qd x 1 at the administered dose, five animals): ≥ 40%; partial responses [2, 6]: three; toxic deaths / toxic lethalities [2, 6]: three; overall response rate ([2]; Panc-1 (Example 18), i.v. qd x 1 at estimated MTD): 100%; Mean Score ([2]; iv): 4 ± 1.8; Toxic Deaths ([2]; number of mice, i.v. qd x 1, mg/kg: Taxol 24, 0854 46.6, 1011 107.6, 6 mice/group): 3; Complete Response [2, 7]: 0; Partial Response [2, 7]: 3; Stable Disease [2, 7]: 0; Survivors [2, 7]: 3; maximal mean group weight loss (A2780 ovarian carcinoma; A2780, i.v. qd x 1, Day 5): 11.3%; Complete Response (A2780 ovarian carcinoma; [8]): 1; Toxic Deaths (A2780 ovarian carcinoma; [8]): no toxic deaths; partial responses (A2780 ovarian carcinoma; [8]): 3; tolerability / toxicity (A2780 ovarian carcinoma; mouse, in vivo, iv): well-tolerated |
| CCC(=O)O[C@H]1C(=O)[C@@]2(C)[C@H]([C@H](OC(=O)c3ccccc3)[C@]3(O)C[C@H](OC(=O)[C@H](O)[C@@H](NC(=O)c4ccccc4)c4ccoc4)C(C)=C1C3(C)C)[C@]1(OC(C)=O)CO[C@@H]1C[C@@H]2O [Compound 0670] | 16.7-40% | 0 | 0 | 0 | 0 | 0 | 4 | 1 | 1 | 4.3 ± 1.6 | 0 | 2 | 0 | 1 | 2 | 6.6 ± 1.9 | 0 | 3 | 0 | < 1 | Mean Score (VM46 colon carcinoma; iv): 2.8 ± 1.2; MDS (n) (VM46 colon carcinoma; iv, 1536 h): 40.1 ± 5.8 (5) days; Partial Response (VM46 colon carcinoma; [3]): 1; Stable Disease (VM46 colon carcinoma; [3]): 0; Survivors (VM46 colon carcinoma; [3]): 1; total response rate (DU145 prostate carcinoma): 20-50%; MDS (n) (MX-1 carcinoma; iv, 1440 h): 28.5 ± 6.1 (4) days; MDS ([1]; Panc-1 (Example 17)): 47 to 56 days; Toxic Deaths ([1]; Panc-1 (Example 17), i.v. qd x 1, six mice per group): One; MDS (n) ([1]; mean days of survival until neoplasm reached 1.5 g, i.v. qd x 1, mg/kg: Taxol 36, 0499 77, 0503 72.6, 0670 123.1, 0706 107.6, 0838 72.6, 0854 76.9, 6 mice/group, terminated Day 60): 51.2 ± 5.9 (2) days; Toxic Deaths [1, 4]: 1; Complete Response [1, 4]: 1; Partial Response [1, 4]: 0; Stable Disease [1, 4]: 2; Mean Score [1, 5]: 4.2 ± 1.7; MDS (n) (HCT116 carcinoma; iv, 1440 h): 29.8 ± 0.7 (2) days |
